Results taken from patent US11780821B2, “Inhibitors of fibroblast activation protein” (Praxis Biotech LLC, priority 2017, dated 2023).
Read-outs that look alike come from different tables or passages of the source.

What was measured:
mouse plasma DPPIV = target: T1, mouse plasma DPPIV (Mus musculus, UniProt P28843); test: DPPIV enzymatic activity in mouse plasma; assay type: biochemical; details: C57BL/6 mouse plasma; H-Gly-Pro-AMC substrate
T1 construct: from tissue; host or cells: mouse plasma (C57BL/6, EDTA)
T1 sequence (P28843 37-760 limits assumed): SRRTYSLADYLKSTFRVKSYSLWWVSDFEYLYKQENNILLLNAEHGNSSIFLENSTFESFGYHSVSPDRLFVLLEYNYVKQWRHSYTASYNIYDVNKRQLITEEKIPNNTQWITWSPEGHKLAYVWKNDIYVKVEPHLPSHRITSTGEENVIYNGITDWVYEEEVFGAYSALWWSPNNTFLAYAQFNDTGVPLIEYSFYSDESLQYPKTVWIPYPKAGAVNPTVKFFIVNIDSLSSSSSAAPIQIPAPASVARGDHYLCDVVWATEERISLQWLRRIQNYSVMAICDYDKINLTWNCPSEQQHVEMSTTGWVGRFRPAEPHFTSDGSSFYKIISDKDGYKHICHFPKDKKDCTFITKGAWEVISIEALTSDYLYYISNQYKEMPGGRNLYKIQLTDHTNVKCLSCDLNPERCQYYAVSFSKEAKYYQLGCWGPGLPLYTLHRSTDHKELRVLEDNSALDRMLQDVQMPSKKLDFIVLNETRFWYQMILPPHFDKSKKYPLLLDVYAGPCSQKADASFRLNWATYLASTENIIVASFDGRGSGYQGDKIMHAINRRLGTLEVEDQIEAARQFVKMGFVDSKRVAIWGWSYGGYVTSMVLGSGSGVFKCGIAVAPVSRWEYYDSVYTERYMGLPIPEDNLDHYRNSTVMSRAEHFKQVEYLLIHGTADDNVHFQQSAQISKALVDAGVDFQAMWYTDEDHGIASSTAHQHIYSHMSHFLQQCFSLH
Protocol: Approximately 500 μL of whole blood from one C57BL/6 mouse was harvested into BD Microtainer® tubes (K2) EDTA (#365974, Becton Dickinson and Co.) via terminal cardiac puncture. The blood sample was immediately centrifuged at approximately 9000 g at 4° C. for 5 minutes. Plasma was separated and stored at −80° C. in aliquots of 300 μL. To assay baseline DPPIV enzymatic exopeptidase activity, 5 μL of thawed, mouse plasma was diluted (1:5) in buffer (100 mM Tris-HCl, 400 mM NaCl, 50 mM salicylic acid, 1 mM EDTA, pH 7.5) and mixed with 35 µL of the same buffer before being pre-incubated with different concentrations of 10 μL of test compounds or DMSO vehicle for 15 minutes at 37° C. in 96-well black plates (Nunc, #237108). After pre-incubation, 50 μL of 200 μM dipeptide substrate H-Gly-Pro-AMC (Bachem, #L-1225) was added to the mixture. The assay was performed for 1 hour at 37° C. 7-Amino-4-Methylcoumarin (AMC) release was detected measuring fluorescence at an excitation wavelength of 360 nm and an emission wavelength of 460 nm using a Multifunction Microplate Reader (Synergy 4, Biotek). All measurements were carried out at least in duplicate.

mouse plasma FAPα = target: T2, mouse plasma FAPα (Mus musculus, UniProt P97321); test: FAPα enzymatic activity in mouse plasma; assay type: biochemical; details: C57BL/6 mouse plasma
T2 construct: from tissue; host or cells: mouse plasma (C57BL/6, EDTA)
T2 sequence (P97321 24-761 limits assumed): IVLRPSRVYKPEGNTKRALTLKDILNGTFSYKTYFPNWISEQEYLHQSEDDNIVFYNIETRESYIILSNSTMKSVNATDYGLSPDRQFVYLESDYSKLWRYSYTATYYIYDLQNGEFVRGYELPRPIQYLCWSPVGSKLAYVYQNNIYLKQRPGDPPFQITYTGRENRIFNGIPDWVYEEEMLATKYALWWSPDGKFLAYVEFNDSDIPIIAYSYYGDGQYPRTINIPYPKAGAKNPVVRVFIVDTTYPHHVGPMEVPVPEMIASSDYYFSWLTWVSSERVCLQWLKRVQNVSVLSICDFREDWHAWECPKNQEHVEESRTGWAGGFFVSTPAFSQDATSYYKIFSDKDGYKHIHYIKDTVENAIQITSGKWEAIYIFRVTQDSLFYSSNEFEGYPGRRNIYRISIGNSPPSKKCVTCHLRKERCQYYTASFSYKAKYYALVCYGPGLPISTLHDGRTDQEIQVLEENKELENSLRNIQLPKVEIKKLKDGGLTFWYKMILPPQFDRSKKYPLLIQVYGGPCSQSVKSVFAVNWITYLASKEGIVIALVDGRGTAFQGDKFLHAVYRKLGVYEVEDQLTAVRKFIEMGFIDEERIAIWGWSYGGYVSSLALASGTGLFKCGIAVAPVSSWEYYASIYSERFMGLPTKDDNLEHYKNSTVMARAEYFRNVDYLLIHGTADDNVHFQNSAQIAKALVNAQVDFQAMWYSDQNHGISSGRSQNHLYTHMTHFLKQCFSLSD
Protocol: The blood sample was immediately centrifuged at approximately 9000 g at 4° C. for 5 minutes. Plasma was separated and stored at −80° C. in aliquots of 300 μL. […] The assay was performed for 1 hour at 37° C. protected from light. 7-Amino-4-Methylcoumarin (AMC) release was detected measuring fluorescence at an excitation wavelength of 380 nm and an emission wavelength of 460 nm using a Multifunction Microplate Reader (Synergy 4, Biotek). All measurements were carried out at least as a single point.

[1] = PRXS-AMC substrate, read-out: mouse plasma FAPα (PRXS-AMC) (exo IC50)
[2] = Z-Gly-Pro-AMC substrate, read-out: mouse plasma FAPα (Z-Gly-Pro-AMC) (exo IC50)

Row | IC50 (mouse plasma FAPα; [2]) [µM] | SMILES | IC50 (mouse plasma DPPIV) [µM] | IC50 (mouse plasma FAPα; [1]) [µM]
1 | < 1 | N#C[C@@H]1CC(F)(F)CN1C(=O)CNC(=O)c1c[nH]c(=O)c(-c2ccccc2)c1 [Compound 14, (S)—N-(2-(2-cyano-4,4-difluoropyrrolidin-1-yl)-2-oxoethyl)-6-oxo-5-phenyl-1,6-dihydropyridine-3-carboxamide] | 1 to 10 | < 1
2 | < 1 | N#C[C@@H]1CC(F)(F)CN1C(=O)CNC(=O)c1c[nH]c(=O)c2ccc(F)cc12 [Compound 26, (S)—N-(2-(2-cyano-4,4-difluoropyrrolidin-1-yl)-2-oxoethyl)-6-fluoro-1-oxo-1,2-dihydroisoquinoline-4-carboxamide] | < 1 | < 1
3 | < 1 | N#C[C@@H]1CC(F)(F)CN1C(=O)CNC(=O)c1ccncc1Cc1ccccc1 [Compound 50, (S)-3-benzyl-N-(2-(2-cyano-4,4-difluoropyrrolidin-1-yl)-2-oxoethyl)isonicotinamide] | – | < 1
4 | < 1 | N#C[C@@H]1CC(F)(F)CN1C(=O)CNC(=O)c1ccncc1-c1cc(Cl)ccc1F [Compound 54, (S)-3-(5-chloro-2-fluorophenyl)-N-(2-(2-cyano-4,4-difluoropyrrolidin-1-yl)-2-oxoethyl)isonicotinamide] | > 10 | < 1
5 | < 1 | N#C[C@@H]1CC(F)(F)CN1C(=O)CNC(=O)c1c[nH]c(=O)c2ccccc12 [Example 1, (S)—N-(2-(2-cyano-4,4-difluoropyrrolidin-1-yl)-2-oxoethyl)-1-oxo-1,2-dihydroisoquinoline-4-carboxamide] | < 1 | –

The remaining lines, values behind:

Row | SMILES | IC50 (mouse plasma FAPα; [2]) [µM] | IC50 (mouse plasma DPPIV) [µM] | IC50 (mouse plasma FAPα; [1]) [µM]
6 | N#C[C@@H]1CC(F)(F)CN1C(=O)CNC(=O)c1ccncc1-c1ccccc1 [Compound 13, (S)—N-(2-(2-cyano-4,4-difluoropyrrolidin-1-yl)-2-oxoethyl)-3-phenylisonicotinamide] | < 1 | > 10 | < 1
7 | N#C[C@@H]1CC(F)(F)CN1C(=O)CNC(=O)c1ccncc1C1CC1 [Compound 24, (S)—N-(2-(2-cyano-4,4-difluoropyrrolidin-1-yl)-2-oxoethyl)-3-cyclopropylisonicotinamide] | < 1 | > 10 | < 1
8 | C=Cc1cnccc1C(=O)NCC(=O)N1CC(F)(F)C[C@H]1C#N [Compound 40, (S)—N-(2-(2-cyano-4,4-difluoropyrrolidin-1-yl)-2-oxoethyl)-3-vinylisonicotinamide] | < 1 | > 10 | < 1
9 | N#C[C@@H]1CC(F)(F)CN1C(=O)CNC(=O)c1ccncc1-c1cc(F)cc(F)c1 [Compound 47, (S)—N-(2-(2-cyano-4,4-difluoropyrrolidin-1-yl)-2-oxoethyl)-3-(3,5-difluorophenyl)isonicotinamide] | < 1 | > 10 | < 1
10 | N#C[C@@H]1CC(F)(F)CN1C(=O)CNC(=O)c1ccncc1-c1ccc(F)cc1 [Compound 52, (S)—N-(2-(2-cyano-4,4-difluoropyrrolidin-1-yl)-2-oxoethyl)-3-(4-fluorophenyl)isonicotinamide] | < 1 | > 10 | < 1
11 | Cn1ncc2c(-c3cnccc3C(=O)NCC(=O)N3CC(F)(F)C[C@H]3C#N)cccc21 [Compound 87, (S)—N-(2-(2-cyano-4,4-difluoropyrrolidin-1-yl)-2-oxoethyl)-3-(1-methyl-1H-indazol-4-yl)isonicotinamide] | < 1 | 1 to 10 | < 1
12 | N#C[C@@H]1CC(F)(F)CN1C(=O)CNC(=O)c1ccncc1N1CCOCC1 [Compound 88, N-[2-[(2S)-2-cyano-4,4-difluoro-pyrrolidin-1-yl]-2-oxo-ethyl]-3-morpholino-pyridine-4-carboxamide] | < 1 | 1 to 10 | < 1
13 | N#C[C@@H]1CC(F)(F)CN1C(=O)CNC(=O)c1ccncc1C1=CCNCC1 [Compound 105, (S)—N-(2-(2-cyano-4,4-difluoropyrrolidin-1-yl)-2-oxoethyl)-1′,2′,3′,6′-tetrahydro-[3,4′-bipyridine]-4-carboxamide 2,2,2-trifluoroacetate] | – | > 10 | < 1
14 | N#C[C@@H]1CC(F)(F)CN1C(=O)CNC(=O)c1c[nH]c(=O)cc1-c1ccc(F)cc1 [Compound 109, (S)—N-(2-(2-cyano-4,4-difluoropyrrolidin-1-yl)-2-oxoethyl)-4-(4-fluorophenyl)-6-oxo-1,6-dihydropyridine-3-carboxamide] | – | 1 to 10 | < 1
15 | C=C(c1ccccc1)c1cnccc1C(=O)NCC(=O)N1CC(F)(F)C[C@H]1C#N [Compound 122, (S)—N-(2-(2-cyano-4,4-difluoropyrrolidin-1-yl)-2-oxoethyl)-3-(1-phenylvinyl)isonicotinamide] | – | > 10 | < 1
